Experimental data taken from patent publication US20230128357A1, “Compound Combination with Superior Herbicidal Activity” (priority 2020, published 2023).

Columns and labels:
Assay in all cases: Herbicidal action, field trial, post-emergence
Format in all cases: in vivo
Chenopodium album = system: Chenopodium album
Source text: (§1) The growth stages of the different weed or crop plant species are indicated according to the BBCH monograph “Growth stages of mono- and dicotyledonous plants”, 2nd edition, 2001, ed. Uwe Meier, Federal Biological Research Centre for Agriculture and Forestry (Biologische Bundesanstalt für Land und Forstwirtschaft). The respective BBCH stages are mentioned in brackets for the different weed or crop plant species and indicate the BBCH stage for the majority of the respective weed or crop plant species.
(§2) The dose rates of herbicidal ingredients used in each case are indicated for the respective active ingredient in brackets and refer to the amount of active ingredient per hectare (g a.i./ha).
(§3) EC=A+B+C−[((A·B)+(A·C)+(B·C)]100)+(A·B·C/10000)

Echinocloa crus-galli = system: Echinocloa crus-galli
Source text: as §1, §2, §3

Panicum maximum = system: Panicum maximum
Source text: as §1, §2, §3

Polygonum convolvulus = system: Polygonum convolvulus
Source text: as §1, §2, §3

Setaria viridis = system: Setaria viridis
Source text: as §1, §2, §3

Zea mays = system: Zea mays
Source text: as §1, §2, §3

Abutilon theophrasti = conditions: Table 2
Source text: as §1, §2

SMILES: Cc1ccc2c(c1)[C@H](Nc1nc(N)nc([C@@H](C)F)n1)[C@@H](C)C2 (mixture of isomers) [Indaziflam, N2-[(1R,2S)-2,3-dihydro-2,6-dimethyl-1H-inden-1-yl]-6-[(1RS)-1-fluoroethyl]-1,3,5-triazine-2,4-diamine]
- Herbicidal Activity 13 DAT (EA) (Chenopodium album; 10 g a.i./ha, Table 9): 0%
- Herbicidal Activity 13 DAT (EA) (Chenopodium album; 25 g a.i./ha, Table 9): 10%
- Herbicidal Activity 13 DAT (EA) (Echinocloa crus-galli; 10 g a.i./ha, Table 11): 0%
- Herbicidal Activity 13 DAT (EA) (Echinocloa crus-galli; 25 g a.i./ha, Table 11): 0%
- Herbicidal Activity 13 DAT (EA) (Panicum maximum; 10 g a.i./ha, Table 12): 0%
- Herbicidal Activity 13 DAT (EA) (Panicum maximum; 25 g a.i./ha, Table 12): 0%
- Herbicidal Activity 13 DAT (EA) (Polygonum convolvulus; 10 g a.i./ha, Table 8): 20%
- Herbicidal Activity 13 DAT (EA) (Polygonum convolvulus; 25 g a.i./ha, Table 8): 20%
- Herbicidal Activity 13 DAT (EA) (Setaria viridis; 10 g a.i./ha, Table 10): 0%
- Herbicidal Activity 13 DAT (EA) (Setaria viridis; 25 g a.i./ha, Table 10): 0%
- Herbicidal Activity 13 DAT (EA) (Zea mays; 10 g a.i./ha, Table 13): 0%
- Herbicidal Activity 13 DAT (EA) (Zea mays; 25 g a.i./ha, Table 13): 0%

SMILES: O=C(Nc1ccc(F)cc1F)c1cccnc1Oc1cccc(C(F)(F)F)c1 [Diflufenican, diflufenican]
- Herbicidal Activity 13 DAT (EA) (Chenopodium album; 60 g a.i./ha, Table 3): 10%
- Herbicidal Activity 13 DAT (EA) (Chenopodium album; 90 g a.i./ha, Table 9): 10%
- Herbicidal Activity 13 DAT (EA) (Chenopodium album; 150 g a.i./ha, Table 3): 10%
- Herbicidal Activity 13 DAT (EA) (Chenopodium album; 150 g a.i./ha, Table 9): 10%
- Herbicidal Activity 13 DAT (EA) (Echinocloa crus-galli; 60 g a.i./ha, Table 5): 0%
- Herbicidal Activity 13 DAT (EA) (Echinocloa crus-galli; 90 g a.i./ha, Table 11): 0%
- Herbicidal Activity 13 DAT (EA) (Echinocloa crus-galli; 150 g a.i./ha, Table 5): 0%
- Herbicidal Activity 13 DAT (EA) (Echinocloa crus-galli; 150 g a.i./ha, Table 11): 0%
- Herbicidal Activity 13 DAT (EA) (Panicum maximum; 60 g a.i./ha, Table 6): 10%
- Herbicidal Activity 13 DAT (EA) (Panicum maximum; 90 g a.i./ha, Table 12): 10%
- Herbicidal Activity 13 DAT (EA) (Panicum maximum; 150 g a.i./ha, Table 6): 10%
- Herbicidal Activity 13 DAT (EA) (Panicum maximum; 150 g a.i./ha, Table 12): 10%
- Herbicidal Activity 13 DAT (EA) (Polygonum convolvulus; 60 g a.i./ha, Table 1): 40%
- Herbicidal Activity 13 DAT (EA) (Polygonum convolvulus; 90 g a.i./ha, Table 8): 45%
- Herbicidal Activity 13 DAT (EA) (Polygonum convolvulus; 150 g a.i./ha, Table 1): 60%
- Herbicidal Activity 13 DAT (EA) (Polygonum convolvulus; 150 g a.i./ha, Table 8): 60%
- Herbicidal Activity 13 DAT (EA) (Setaria viridis; 60 g a.i./ha, Table 4): 0%
- Herbicidal Activity 13 DAT (EA) (Setaria viridis; 90 g a.i./ha, Table 10): 0%
- Herbicidal Activity 13 DAT (EA) (Setaria viridis; 150 g a.i./ha, Table 4): 0%
- Herbicidal Activity 13 DAT (EA) (Setaria viridis; 150 g a.i./ha, Table 10): 0%
- Herbicidal Activity 13 DAT (EA) (Zea mays; 60 g a.i./ha, Table 7): 13%
- Herbicidal Activity 13 DAT (EA) (Zea mays; 90 g a.i./ha, Table 13): 10%
- Herbicidal Activity 13 DAT (EA) (Zea mays; 150 g a.i./ha, Table 7): 25%
- Herbicidal Activity 13 DAT (EA) (Zea mays; 150 g a.i./ha, Table 13): 25%
- Herbicidal Activity 13 DAT (EA) (Abutilon theophrasti; 60 g a.i./ha): 35%
- Herbicidal Activity 13 DAT (EA) (Abutilon theophrasti; 150 g a.i./ha): 65%

SMILES: CCCCCCCCC(=O)O [Pelargonic acid]
- Herbicidal Activity 13 DAT (EA) (Chenopodium album; 6000 g a.i./ha, Table 3): 45%
- Herbicidal Activity 13 DAT (EA) (Chenopodium album; 6000 g a.i./ha, Table 9): 42.5%
- Herbicidal Activity 13 DAT (EA) (Chenopodium album; 16000 g a.i./ha, Table 3): 88%
- Herbicidal Activity 13 DAT (EA) (Chenopodium album; 16000 g a.i./ha, Table 9): 84%
- Herbicidal Activity 13 DAT (EA) (Echinocloa crus-galli; 6000 g a.i./ha, Table 5): 25%
- Herbicidal Activity 13 DAT (EA) (Echinocloa crus-galli; 6000 g a.i./ha, Table 11): 13%
- Herbicidal Activity 13 DAT (EA) (Echinocloa crus-galli; 16000 g a.i./ha, Table 5): 35%
- Herbicidal Activity 13 DAT (EA) (Echinocloa crus-galli; 16000 g a.i./ha, Table 11): 30%
- Herbicidal Activity 13 DAT (EA) (Panicum maximum; 6000 g a.i./ha, Table 6): 10%
- Herbicidal Activity 13 DAT (EA) (Panicum maximum; 6000 g a.i./ha, Table 12): 15%
- Herbicidal Activity 13 DAT (EA) (Panicum maximum; 16000 g a.i./ha, Table 6): 65%
- Herbicidal Activity 13 DAT (EA) (Panicum maximum; 16000 g a.i./ha, Table 12): 58%
- Herbicidal Activity 13 DAT (EA) (Polygonum convolvulus; 6000 g a.i./ha, Table 1): 10%
- Herbicidal Activity 13 DAT (EA) (Polygonum convolvulus; 6000 g a.i./ha, Table 8): 25%
- Herbicidal Activity 13 DAT (EA) (Polygonum convolvulus; 16000 g a.i./ha, Table 1): 89%
- Herbicidal Activity 13 DAT (EA) (Polygonum convolvulus; 16000 g a.i./ha, Table 8): 90%
- Herbicidal Activity 13 DAT (EA) (Setaria viridis; 6000 g a.i./ha, Table 4): 40%
- Herbicidal Activity 13 DAT (EA) (Setaria viridis; 6000 g a.i./ha, Table 10): 25%
- Herbicidal Activity 13 DAT (EA) (Setaria viridis; 16000 g a.i./ha, Table 4): 55%
- Herbicidal Activity 13 DAT (EA) (Setaria viridis; 16000 g a.i./ha, Table 10): 50%
- Herbicidal Activity 13 DAT (EA) (Zea mays; 6000 g a.i./ha, Table 7): 40%
- Herbicidal Activity 13 DAT (EA) (Zea mays; 6000 g a.i./ha, Table 13): 39%
- Herbicidal Activity 13 DAT (EA) (Zea mays; 16000 g a.i./ha, Table 7): 60%
- Herbicidal Activity 13 DAT (EA) (Zea mays; 16000 g a.i./ha, Table 13): 63%
- Herbicidal Activity 13 DAT (EA) (Abutilon theophrasti; 6000 g a.i./ha): 40%
- Herbicidal Activity 13 DAT (EA) (Abutilon theophrasti; 16000 g a.i./ha): 80%
